≈ marks a conversion by molar mass, not a printed value. Where two headings read alike, the source gives them in different places.
How the values were obtained:
Assay in all cases: Antimicrobial activity, minimum inhibitory concentration (MIC)
Type in all cases: cell-based
Candida albicans 90028 = tested on: Candida albicans 90028
Description: (§1) The antimicrobial activity of CSA-148 was determined in comparison to CSA-44, a CSA compound known to have very high antimicrobial activity compared to other CSAs. The microbes used in the comparative test was were Candida albicans 90028, methicillin resistant Staphylococcus aureus (MRSA) BAA-41, and Pseudomonas aeruginosa (PA01 47085).
The measured MICs for C. albicans 90028 were based on 100% inhibition of growth (i.e. no cloudiness). Judging by 50% inhibition, which is more difficult but is typical for fungal MICs, the MIC for CSA-44 relative to C. albicans can be extrapolated to 4 μg/ml, and the MIC for CSA-148 relative to C. albicans can be extrapolated to 2 μg/ml.

[1] = tested on: Pseudomonas aeruginosa (PA01 47085)
Description: as §1

[2] = tested on: methicillin resistant Staphylococcus aureus (MRSA) BAA-41
Description: as §1

Row | Structure (SMILES) | MIC (Candida albicans 90028; C. albicans 90028, based on 100% inhibition of growth (no cloudiness)) | MIC (Candida albicans 90028; C. albicans, judging by 50% inhibition, extrapolated) | MIC [1] | MIC [2] | MIC (Candida albicans 90028; Candida albicans, 90028, C. albicans 90028, based on 100% inhibition of growth (no cloudiness), read-out: MIC) | MIC (Candida albicans 90028; Candida albicans, 90028, C. albicans, judging by 50% inhibition, extrapolated, read-out: MIC) | MIC ([1]; Pseudomonas aeruginosa, read-out: MIC) | MIC ([2]; Staphylococcus aureus, read-out: MIC)
1 | CCCCCCCCOC(=O)CC[C@@H](C)[C@H]1CC[C@H]2[C@@H]3[C@H](OC(=O)CCN)C[C@@H]4C[C@H](OC(=O)CCN)CC[C@]4(C)[C@H]3C[C@H](OC(=O)CCN)[C@]12C [CSA-44] | 8 µg/mL (≈ 10.9 µM) | 4 µg/mL (≈ 5.45 µM) | 2 µg/mL (≈ 2.72 µM) | 2 µg/mL (≈ 2.72 µM) |  |  |  | 
2 | CC(C)=CCC/C(C)=C/COC(=O)CC[C@@H](C)[C@H]1CC[C@H]2[C@@H]3[C@H](OC(=O)CCN)C[C@@H]4C[C@H](OC(=O)CCN)CC[C@]4(C)[C@H]3C[C@H](OC(=O)CCN)[C@]12C [CSA-148] |  |  |  |  | 4 µg/mL (≈ 5.28 µM) | 2 µg/mL (≈ 2.64 µM) | 2 µg/mL (≈ 2.64 µM) | 2 µg/mL (≈ 2.64 µM)
